Patent publication US20150210729A1, “MACROLIDE DERIVATIVES, PREPARATION THEREOF AND THERAPEUTIC USE THEREOF” (priority 2012, published 2015)
In brackets after ≈: the same amount, converted by molar mass. Read-outs that look alike come from different tables or passages of the source.

What was measured:
[1] = tested on: Mycobacterium tuberculosis H37Rv; experiment: Alamar blue (MABA) test, MIC on Mycobacterium tuberculosis H37Rv; assay type: cell-based; conditions: minimum inhibitory concentration, Alamar blue, strain H37Rv, read-out: MIC (μM) MTb H37Rv
Streptococcus pneumoniae = experiment: ATP bioluminescence test, inhibition of bacterial growth of Streptococcus pneumoniae (IC80); assay type: cell-based; conditions: read-out: IC80 (μM) S. pneumoniae
Procedure: Measurement of the Inhibitory Activity (IC80) of the Compounds According to the Invention Towards Streptococcus pneumoniae
The test used is a bioluminescence test, the aim of which is to measure the inhibition of bacterial growth of Streptococcus pneumoniae by quantification of the amount of adenosine triphosphate (ATP). Specifically, ATP is a major and mandatory energy intermediate of very many reactions of cell metabolism which characterizes live media.
ATP quantification is performed at the end of the test by using an enzyme, luciferase, which, in the presence of ATP and of a specific substrate, luciferin, produces quantifiable light.
Thus, in the presence of luciferin and luciferase at […] concentrations, the value obtained in relative light units (RLU) will make it possible, by means of a calibration, to estimate the amount of ATP and thus deduce the number of live bacteria at the end of the incubation period.
Thus, the more the RLU value obtained at the end of the test tends towards zero, the more the product inhibits the total growth of bacteria.
The results (Table 3) are expressed in IC80.

[2] = 80% inhibition of bacterial growth, ATP/luciferase readout

Row | SMILES | MIC [1] [µM] | IC80 (Streptococcus pneumoniae; [2]) [µM] | IC80 (Streptococcus pneumoniae) [µM]
1 | CON=C1C[C@@H](C)O[C@@H](O[C@@H]2[C@@H](C)[C@H](O[C@H]3C[C@@H](C)NC[C@H](C)O3)[C@@H](C)C(=O)O[C@H](C(C)CO[C@@H]3O[C@H](C)[C@@H](O)[C@@H](OC)[C@H]3OC)[C@H](C)[C@@H](OC(=O)CC(C)C)[C@@H](C)C(=O)[C@@](C)(OC(=O)NCc3ccccc3)C[C@@H]2C)[C@@H]1O (single isomer, unassigned) [Compound 8-a] | 0.56 (≈ 0.621 µg/mL) | 1.84 | –
2 | CON=C1C[C@@H](C)O[C@@H](O[C@@H]2[C@@H](C)[C@H](O[C@H]3C[C@H](C)N(C)C[C@H](C)O3)[C@@H](C)C(=O)O[C@H](C(C)CO[C@@H]3O[C@H](C)[C@@H](O)[C@@H](OC)[C@H]3OC)[C@H](C)[C@@H](OC(=O)CC(C)C)[C@@H](C)C(=O)[C@@](C)(OC(=O)NCCc3ccncc3)C[C@@H]2C)[C@@H]1O (stereo partly drawn) [Compound 2, (2R,3S,4R,5R,7S,9S,10S,11R,12S,13R)-2-(1-{[(2R,3R,4R,5R,6R)-5-hydroxy-3,4-dimethoxy-6-methyltetrahydro-2H-pyran-2-yl]oxy}propan-2-yl)-10-{[(2S,3R,6R)-3-hydroxy-4-(methoxyimino)-6-methyltetrahydro-2H-pyran-2-yl]oxy}-3,5,7,9,11,13-hexamethyl-6,14-dioxo-7-({[2-(pyridin-4-yl)ethyl]carbamoyl}oxy)-12-{[(2S,5S,7R)-2,4,5-trimethyl-1,4-oxazepan-7-yl]oxy}oxacyclotetradecan-4-yl 3-methylbutanoate] | 1.25 (≈ 1.42 µg/mL) | 0.28 | –
3 | CON=C1C[C@@H](C)O[C@@H](O[C@@H]2[C@@H](C)[C@H](O[C@H]3C[C@H](C)N(C)C[C@H](C)O3)[C@@H](C)C(=O)O[C@H]([C@@H](C)CO[C@@H]3O[C@H](C)[C@@H](O)[C@@H](OC)[C@H]3OC)[C@H](C)[C@@H](OC(=O)CC(C)C)[C@@H](C)C(=O)[C@@](C)(OC(=O)NC(C)(C)CNC(=O)c3cnc(O)cn3)C[C@@H]2C)[C@@H]1O [Compound 14] | 0.67 (≈ 0.821 µg/mL) | 2.27 | –
4 | CON=C1C[C@@H](C)O[C@@H](O[C@@H]2[C@@H](C)[C@H](O[C@H]3C[C@H](C)N(CCc4ccncc4)C[C@H](C)O3)[C@@H](C)C(=O)OC([C@@H](C)CO[C@@H]3O[C@H](C)[C@@H](O)[C@@H](OC)[C@H]3OC)[C@H](C)[C@@H](OC(=O)CC(C)C)[C@@H](C)C(=O)[C@@](C)(OC(=O)NCc3ccccc3)C[C@@H]2C)[C@@H]1O (stereo partly drawn) [Compound 24] | 0.48 (≈ 0.582 µg/mL) | 0.88 | –
5 | CON=C1C[C@@H](C)O[C@@H](O[C@@H]2[C@@H](C)[C@H](O[C@H]3C[C@@H](C)N(C)C[C@H](C)O3)[C@@H](C)C(=O)OC([C@@H](C)CO[C@@H]3O[C@H](C)[C@@H](O)[C@@H](OC)[C@H]3OC)[C@H](C)[C@@H](OC(=O)CC(C)C)[C@@H](C)C(=O)[C@@](C)(OC(=O)NCCNc3ccnc4cc(Cl)ccc34)C[C@@H]2C)[C@@H]1O (stereo partly drawn) [Compound 26] | 0.78 (≈ 0.965 µg/mL) | 0.69 | –
6 | CON=C1C[C@@H](C)O[C@@H](O[C@@H]2[C@@H](C)[C@H](O[C@H]3C[C@H](C)N(Cc4ccccc4)C[C@H](C)O3)[C@@H](C)C(=O)OC([C@@H](C)CO[C@@H]3O[C@H](C)[C@@H](O)[C@@H](OC)[C@H]3OC)[C@H](C)[C@@H](OC(=O)CC(C)C)[C@@H](C)C(=O)[C@@](C)(OC(=O)NCCNC(=O)c3cnc(O)cn3)C[C@@H]2C)[C@@H]1O (stereo partly drawn) [Compound 33] | 0.35 (≈ 0.446 µg/mL) | 1.34 | –
7 | CON=C1C[C@@H](C)O[C@@H](O[C@@H]2[C@@H](C)[C@H](O[C@H]3CC(C)N(C4CC4)C[C@H](C)O3)[C@@H](C)C(=O)OC([C@@H](C)CO[C@@H]3O[C@H](C)[C@@H](O)[C@@H](OC)[C@H]3OC)[C@H](C)[C@@H](OC(=O)CC(C)C)[C@@H](C)C(=O)[C@@](C)(OC(=O)NCc3ccccc3)C[C@@H]2C)[C@@H]1O (stereo partly drawn) [Compound 35] | 0.36 (≈ 0.413 µg/mL) | 1.81 | –
8 | CN[C@H](CC(C)C)C(=O)N[C@H]1C(=O)N[C@@H](CC(N)=O)C(=O)N[C@H]2C(=O)N[C@H]3C(=O)N[C@H](C(=O)N[C@H](C(=O)O)c4cc(O)cc(O)c4-c4cc3ccc4O)[C@H](O)c3ccc(c(Cl)c3)Oc3cc2cc(c3O[C@@H]2O[C@H](CO)[C@@H](O)[C@H](O)[C@H]2O[C@H]2C[C@](C)(N)[C@H](O)[C@H](C)O2)Oc2ccc(cc2Cl)[C@H]1O [vancomycin, reference compound] | – | – | 0.14
